Assay results taken from PubChem BioAssay (NCI).
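Briefly, cells in 96-well plates were exposed to five compound concentrations for 48 h, and endpoints were estimated by linear interpolation. Here, GI50 denotes the concentration required for 50% inhibition of growth. TGI denotes the concentration required for complete inhibition of growth.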

Legend:
Assay in all cases: NCI-60 cell line screen, 48 h
[1] = system: 786-0 renal
[2] = system: A498 renal
[3] = system: A549 NSCLC
[4] = system: ACHN renal
[5] = system: BT-549 breast
[6] = system: CAKI-1 renal
[7] = system: CCRF-CEM leukemia
[8] = system: COLO 205 colon
[9] = system: DU-145 prostate
[10] = system: EKVX NSCLC
[11] = system: HCC-2998 colon
[12] = system: HCT-116 colon
[13] = system: HCT-15 colon
[14] = system: HL-60(TB) leukemia
[15] = system: HOP-62 NSCLC
[16] = system: HOP-92 NSCLC
[17] = system: HS 578T breast
[18] = system: HT29 colon
[19] = system: IGROV1 ovarian
[20] = system: K-562 leukemia
[21] = system: KM12 colon
[22] = system: LOX IMVI melanoma
[23] = system: M14 melanoma
[24] = system: MCF7 breast
[25] = system: MDA-MB-231 breast
[26] = system: MDA-MB-435
[27] = system: MDA-MB-468 breast
[28] = system: MOLT-4 leukemia
[29] = system: NCI-H226 lung
[30] = system: NCI-H23 lung
[31] = system: NCI-H460 lung
[32] = system: NCI-H522 lung
[33] = system: NCI/ADR-RES ovarian
[34] = system: OVCAR-3 ovarian
[35] = system: OVCAR-4 ovarian
[36] = system: OVCAR-5 ovarian
[37] = system: OVCAR-8 ovarian
[38] = system: PC-3 prostate
[39] = system: RPMI-8226 leukemia
[40] = system: RXF 393 renal
[41] = system: SF-268 CNS
[42] = system: SF-295 CNS
[43] = system: SF-539 CNS
[44] = system: SK-MEL-2 melanoma
[45] = system: SK-MEL-28 melanoma
[46] = system: SK-MEL-5 melanoma
[47] = system: SK-OV-3 ovarian
[48] = system: SN12C renal
[49] = system: SNB-19 CNS
[50] = system: SNB-75 CNS
[51] = system: SR leukemia
[52] = system: SW-620 colon
[53] = system: T-47D breast
[54] = system: TK-10 renal
[55] = system: U251 CNS
[56] = system: UACC-257 melanoma
[57] = system: UACC-62 melanoma
[58] = system: UO-31 renal

With `O=C(N/N=C/c1occc1Br)c1[nH]c2ccc(Br)cc2c1-c1ccccc1` the GI50 [1] was 0.677 µM, the TGI [1] was 16.7 µM and the GI50 [2] was 14.8 µM. The TGI [2] was 28.8 µM, the GI50 [3] was 1.95 µM and the TGI [3] was 21.9 µM. It also gave a GI50 [4] of 0.952 µM, a TGI [4] of 16.2 µM and a GI50 [5] of 0.743 µM. It also gave a TGI [5] of 12.9 µM, a GI50 [6] of 0.698 µM and a TGI [6] of 17.1 µM. It also gave a GI50 [7] of 0.512 µM, a TGI [7] of 11 µM and a GI50 [8] of 0.561 µM. For the same compound, the TGI [8] was 3.97 µM, the GI50 [9] was 2.71 µM and the TGI [9] was 13.1 µM. It also gave a GI50 [10] of 1.93 µM, a TGI [10] of 17.3 µM and a GI50 [11] of 1.79 µM. It also gave a TGI [11] of 13.7 µM, a GI50 [12] of 0.557 µM and a TGI [12] of 12.6 µM. It also gave a GI50 [13] of 0.516 µM, a TGI [13] of 11.7 µM and a GI50 [14] of 0.344 µM. It also gave a TGI [14] of 2.02 µM, a GI50 [15] of 0.668 µM and a TGI [15] of 18.1 µM. For the same compound, the GI50 [16] was 11.2 µM, the TGI [16] was 24.7 µM and the GI50 [17] was 0.759 µM. For the same compound, the TGI [17] was 18.4 µM, the GI50 [18] was 0.456 µM and the TGI [18] was 2.68 µM. The GI50 [19] was 1.23 µM, the TGI [19] was 13.7 µM and the GI50 [20] was 0.384 µM. For the same compound, the TGI [20] was over 100 µM, the GI50 [21] was 1.26 µM and the TGI [21] was 14.1 µM. The GI50 [22] was 0.663 µM, the TGI [22] was 12.7 µM and the GI50 [23] was 0.669 µM. It also gave a TGI [23] of 15.8 µM, a GI50 [24] of 0.323 µM and a TGI [24] of 11.9 µM. For the same compound, the GI50 [25] was 1.1 µM, the TGI [25] was 14.6 µM and the GI50 [26] was 0.249 µM. It also gave a TGI [26] of 0.875 µM, a GI50 [27] of 0.383 µM and a TGI [27] of 16.9 µM. It also gave a GI50 [28] of 1.45 µM, a TGI [28] of 12.8 µM and a GI50 [29] of 2.51 µM. The TGI [29] was 16.6 µM, the GI50 [30] was 2.05 µM and the TGI [30] was 13.2 µM. It also gave a GI50 [31] of 0.756 µM, a TGI [31] of 10.9 µM and a GI50 [32] of 0.183 µM. For the same compound, the TGI [32] was 0.5 µM, the GI50 [33] was 0.348 µM and the TGI [33] was 3.24 µM. For the same compound, the GI50 [34] was 0.351 µM, the TGI [34] was 11.8 µM and the GI50 [35] was 7.1 µM. The TGI [35] was 22 µM, the GI50 [36] was 2.79 µM and the TGI [36] was 13.6 µM. The GI50 [37] was 2.3 µM, the TGI [37] was 11.3 µM and the GI50 [38] was 0.941 µM. It also gave a TGI [38] of 14.9 µM, a GI50 [39] of 2.44 µM and a TGI [39] of 20.5 µM. For the same compound, the GI50 [40] was 2.68 µM, the TGI [40] was 22.2 µM and the GI50 [41] was 1.74 µM. The TGI [41] was 16.2 µM, the GI50 [42] was 0.359 µM and the TGI [42] was 13.5 µM. It also gave a GI50 [43] of 1.16 µM, a TGI [43] of 4.36 µM and a GI50 [44] of 0.675 µM. For the same compound, the TGI [44] was 16.9 µM, the GI50 [45] was 5.05 µM and the TGI [45] was 20.9 µM. It also gave a GI50 [46] of 0.677 µM, a TGI [46] of 6.21 µM and a GI50 [47] of 1.5 µM. The TGI [47] was 18.1 µM, the GI50 [48] was 1.51 µM and the TGI [48] was 12.5 µM. It also gave a GI50 [49] of 2.85 µM, a TGI [49] of 19.3 µM and a GI50 [50] of 0.832 µM. It also gave a TGI [50] of 14.2 µM, a GI50 [51] of 0.459 µM and a TGI [51] of 30 µM. For the same compound, the GI50 [52] was 0.443 µM, the TGI [52] was 14.3 µM and the GI50 [53] was 0.484 µM. It also gave a TGI [53] of 19.7 µM, a GI50 [54] of 7.68 µM and a TGI [54] of 26.5 µM. The GI50 [55] was 3.22 µM, the TGI [55] was 16.8 µM and the GI50 [56] was 12.5 µM. It also gave a TGI [56] of 28.8 µM, a GI50 [57] of 0.384 µM and a TGI [57] of 16.7 µM. For the same compound, the GI50 [58] was 0.746 µM and the TGI [58] was 21.1 µM.
